Series [1] in a line: Oral gavage pharmacokinetics in rats, plasma oxycodone by LC-MS/MS. As to conditions: 0.89 mg/kg oral, rat; for Plasma Concentration (oxycodone), Mean: mean of the N quantifiable subjects.
A short description of series [2]: Oral gavage pharmacokinetics in rats, plasma oxymorphone by LC-MS/MS. As to conditions: for concentration at 0.25 h / concentration at 0.5 h / concentration at 1 h / concentration at 2 h / concentration at 3 h / concentration at 4 h / concentration at 6 h: oral, Plasma oxymorphone.
The mark [3] stands for this setting: 1.77 mg/kg Oxymorphone HCl oral, rat, hydrochloride.

Structures are written as SMILES. “And” between values parts separate entries of the source, which are not always exact repeats. Identical values can stand only once. Counter-ions that a name gives are not always drawn.

Usually Cmax stands for the highest concentration seen after dosing. As a reminder, the Tmax is the time at which the peak concentration occurs.

With `COc1ccc2c3c1O[C@H]1C(OC(=O)[C@H](O)c4ccccc4)=CC[C@@]4(O)[C@@H](C2)N(C)CC[C@]314` [Oxycodone Mandelate, (R)-(4R,4aS,7aR,12bS)-4a-Hydroxy-9-methoxy-3-methyl-2,3,4,4a,5,7a-hexahydro-1H-4,12-methanobenzofuro[3,2-e]isoquinolin-7-yl 2-hydroxy-2-phenylacetate trifluoroacetic acid salt], in series [1] (4 h), the “Plasma Concentration (oxycodone) by Subject” value was “BLQ” and the “Plasma Concentration (oxycodone), Mean” value was “BLQ”. Further, in series [1] (6 h), the “Plasma Concentration (oxycodone) by Subject” value was “BLQ” and the “Plasma Concentration (oxycodone), Mean” value is listed as “BLQ”.
With `CCCCCCCC/C=C\CCCCCCCC(=O)OC1=CC[C@@]2(O)[C@H]3Cc4ccc(O)c5c4[C@@]2(CCN3C)[C@H]1O5` [Oxymorphone Oleate, trifluoroacetic acid salt], the “Plasma oxymorphone, individual rats” value was “BQL (BQL: <0.200 ng/mL)” in series [2] (7.12 mg/kg oral, Ex No. B3, rat, 0.25 h, trifluoroacetic acid salt); “BQL (BQL: <0.200 ng/mL)” in series [2] (7.12 mg/kg oral, Ex No. B3, rat, 0.5 h, trifluoroacetic acid salt); “BQL (BQL: <0.200 ng/mL)” in series [2] (7.12 mg/kg oral, Ex No. B3, rat, 2 h, trifluoroacetic acid salt).
For `COc1ccc2c3c1O[C@H]1C(=O)CC[C@@]4(O)[C@@H](C2)N(C)CC[C@]314.Cl` [Oxycodone HCl, oxycodone HCl], the “Plasma Concentration (oxycodone) by Subject” value in series [1] (2 h), in series [1] (3 h), in series [1] (4 h) and in series [1] (6 h) was “BLQ” throughout. Besides, the “Plasma Concentration (oxycodone), Mean” value in series [1] (2 h), in series [1] (3 h), in series [1] (4 h) and in series [1] (6 h) was “BLQ” in each case.
Regarding `COc1ccc2c3c1O[C@H]1C(OC(=O)C[C@H](OC(=O)C[C@H](O)C(=O)O)C(=O)O)=CC[C@@]4(O)[C@@H](C2)N(C)CC[C@]314` [Oxycodone Dimalate, (S)-4-((S)-1-Carboxy-3-(((4R,4aS,7aR,12bS)-4a-hydroxy-9-methoxy-3-methyl-2,3,4,4a,5,7a-hexahydro-1H-4,12-methanobenzofuro[3,2-e]isoquinolin-7-yl)oxy)-3-oxopropoxy)-2-hydroxy-4-oxobutanoic acid trifluoroacetic acid salt], the “Plasma Concentration (oxycodone) by Subject” value in series [1] (0.25 h), in series [1] (0.5 h), in series [1] (2 h), in series [1] (3 h), in series [1] (4 h) and in series [1] (6 h) was “BLQ” each time. The “Plasma Concentration (oxycodone), Mean” value in series [1] (0.25 h), in series [1] (0.5 h), in series [1] (2 h), in series [1] (3 h), in series [1] (4 h) and in series [1] (6 h) was “BLQ” in each case.
`COc1ccc2c3c1O[C@H]1C(OC(=O)[C@H](C)O)=CC[C@@]4(O)[C@@H](C2)N(C)CC[C@]314` [Oxycodone Lactate, (S)-(4R,4aS,7aR,12bS)-4a-Hydroxy-9-methoxy-3-methyl-2,3,4,4a,5,7a-hexahydro-1H-4,12-methanobenzofuro[3,2-e]isoquinolin-7-yl 2-hydroxypropanoate trifluoroacetic acid salt]: in series [1] (6 h), the “Plasma Concentration (oxycodone) by Subject” value is reported as “BLQ” and the “Plasma Concentration (oxycodone), Mean” value is given as “BLQ”.
As to `CCCCCCCC/C=C\CCCCCCCC(=O)OC1=CC[C@@]2(O)[C@H]3Cc4ccc(OC)c5c4[C@@]2(CCN3C)[C@H]1O5.Cl` [Oxycodone Oleate, (4R,4aS,7aR,12bS)-4a-Hydroxy-9-methoxy-3-methyl-2,3,4,4a,5,7a-hexahydro-1H-4,12-methanobenzofuro[3,2-e]isoquinolin-7-yl oleate hydrochloride], in series [1] (4 h), the “Plasma Concentration (oxycodone) by Subject” value is reported as “BLQ” and the “Plasma Concentration (oxycodone), Mean” value is given as “BLQ”.
On to `CN1CC[C@]23c4c5ccc(O)c4O[C@H]2C(=O)CC[C@@]3(O)[C@H]1C5` [Oxymorphone HCl, oxymorphone hydrochloride], for which the “Plasma oxymorphone, individual rats” value in series [2] (1.77 mg/kg Oxymorphone HCl oral, rat, 0.25 h, hydrochloride) was 0.379 ng/mL and 0.862 ng/mL and 1.144 ng/mL; in series [2] (1.77 mg/kg Oxymorphone HCl oral, rat, 0.5 h, hydrochloride), 0.343 ng/mL and 0.925 ng/mL and 0.799 ng/mL; in series [2] (1.77 mg/kg Oxymorphone HCl oral, rat, 1 h, hydrochloride), 0.545 ng/mL and 1.557 ng/mL and 1.110 ng/mL; in series [2] (1.77 mg/kg Oxymorphone HCl oral, rat, 2 h, hydrochloride) it was 0.728 ng/mL and 1.826 ng/mL and 0.621 ng/mL; in series [2] (1.77 mg/kg Oxymorphone HCl oral, rat, 3 h, hydrochloride), 0.676 ng/mL and BQL (BQL: <0.200 ng/mL); in series [2] (1.77 mg/kg Oxymorphone HCl oral, rat, 4 h, hydrochloride), 0.429 ng/mL and BQL (BQL: <0.200 ng/mL). The “Plasma oxymorphone, individual rats” value in series [2] (1.77 mg/kg Oxymorphone HCl oral, rat, 6 h, hydrochloride) is “BQL (BQL: <0.200 ng/mL)”; in series [2] (3.54 mg/kg Oxymorphone HCl oral, rat, 0.25 h, hydrochloride) it was 4.958 ng/mL and 3.246 ng/mL and 1.767 ng/mL; in series [2] (3.54 mg/kg Oxymorphone HCl oral, rat, 0.5 h, hydrochloride) it was 4.716 ng/mL and 2.469 ng/mL and 2.095 ng/mL; in series [2] (3.54 mg/kg Oxymorphone HCl oral, rat, 1 h, hydrochloride) it was 3.423 ng/mL and 2.146 ng/mL and 0.913 ng/mL; in series [2] (3.54 mg/kg Oxymorphone HCl oral, rat, 2 h, hydrochloride), 2.434 ng/mL and 1.639 ng/mL; in series [2] (3.54 mg/kg Oxymorphone HCl oral, rat, 3 h, hydrochloride) it was 0.577 ng/mL and 1.635 ng/mL and 1.276 ng/mL. For the same compound, the “Plasma oxymorphone, individual rats” value in series [2] (3.54 mg/kg Oxymorphone HCl oral, rat, 4 h, hydrochloride) was 0.545 ng/mL and 0.618 ng/mL; in series [2] (3.54 mg/kg Oxymorphone HCl oral, rat, 6 h, hydrochloride), 0.796 ng/mL and 0.774 ng/mL. In series [2] (setting [3]), the “Cmax of plasma oxymorphone, individual rats” value was 0.728 ng/mL and 1.826 ng/mL and 1.144 ng/mL. Besides, in series [2] (setting [3]), the “Tmax of plasma oxymorphone, individual rats” value was 2.00 h (2×) and 0.25 h. Besides, the concentration at 0.25 h in series [2] (male, Sprague Dawley, rat, plasma, 1.77 mg/kg, Mean, 1.77 mg/kg Oxymorphone HCl oral, 0.25 h) turned out to be 0.795 ng/mL; in series [2] (male, Sprague Dawley, rat, plasma, 3.54 mg/kg, Mean, 3.54 mg/kg Oxymorphone HCl oral, 0.25 h), 3.32 ng/mL. Besides, the concentration at 0.5 h in series [2] (male, Sprague Dawley, rat, plasma, 1.77 mg/kg, Mean, 1.77 mg/kg Oxymorphone HCl oral, 0.5 h) amounted to 0.689 ng/mL; in series [2] (male, Sprague Dawley, rat, plasma, 3.54 mg/kg, Mean, 3.54 mg/kg Oxymorphone HCl oral, 0.5 h), 3.09 ng/mL. Moreover, the concentration at 1 h was found to be 1.07 ng/mL in series [2] (male, Sprague Dawley, rat, plasma, 1.77 mg/kg, Mean, 1.77 mg/kg Oxymorphone HCl oral, 1 h) and 2.16 ng/mL in series [2] (male, Sprague Dawley, rat, plasma, 3.54 mg/kg, Mean, 3.54 mg/kg Oxymorphone HCl oral, 1 h). The concentration at 2 h in series [2] (male, Sprague Dawley, rat, plasma, 1.77 mg/kg, Mean, 1.77 mg/kg Oxymorphone HCl oral, 2 h) came out at 1.06 ng/mL; in series [2] (male, Sprague Dawley, rat, plasma, 3.54 mg/kg, Mean, 3.54 mg/kg Oxymorphone HCl oral, 2 h) it was 1.78 ng/mL; in series [2] (male, Sprague Dawley, rat, plasma, 3.54 mg/kg, individual rats, 3.54 mg/kg Oxymorphone HCl oral, 2 h) it was 1.27 ng/mL. The concentration at 3 h in series [2] (male, Sprague Dawley, rat, plasma, 1.77 mg/kg, Mean, 1.77 mg/kg Oxymorphone HCl oral, 3 h) is 0.378 ng/mL; in series [2] (male, Sprague Dawley, rat, plasma, 1.77 mg/kg, individual rats, 1.77 mg/kg Oxymorphone HCl oral, 3 h), 0.457 ng/mL; in series [2] (male, Sprague Dawley, rat, plasma, 3.54 mg/kg, Mean, 3.54 mg/kg Oxymorphone HCl oral, 3 h) it was 1.16 ng/mL. Besides, the concentration at 4 h in series [2] (male, Sprague Dawley, rat, plasma, 1.77 mg/kg, Mean, 1.77 mg/kg Oxymorphone HCl oral, 4 h) turned out to be 0.312 ng/mL; in series [2] (male, Sprague Dawley, rat, plasma, 1.77 mg/kg, individual rats, 1.77 mg/kg Oxymorphone HCl oral, 4 h), 0.508 ng/mL; in series [2] (male, Sprague Dawley, rat, plasma, 3.54 mg/kg, Mean, 3.54 mg/kg Oxymorphone HCl oral, 4 h) it was 0.499 ng/mL; in series [2] (male, Sprague Dawley, rat, plasma, 3.54 mg/kg, individual rats, 3.54 mg/kg Oxymorphone HCl oral, 4 h), 0.335 ng/mL. The concentration at 6 h in series [2] (male, Sprague Dawley, rat, plasma, 1.77 mg/kg, Mean, 1.77 mg/kg Oxymorphone HCl oral, 6 h) amounted to 0.6 ng/mL; in series [2] (male, Sprague Dawley, rat, plasma, 1.77 mg/kg, individual rats, 1.77 mg/kg Oxymorphone HCl oral, 6 h), 1.8 ng/mL; in series [2] (male, Sprague Dawley, rat, plasma, 3.54 mg/kg, Mean, 3.54 mg/kg Oxymorphone HCl oral, 6 h), 0.674 ng/mL; in series [2] (male, Sprague Dawley, rat, plasma, 3.54 mg/kg, individual rats, 3.54 mg/kg Oxymorphone HCl oral, 6 h), 0.453 ng/mL. Also, the peak level in series [2] (male, Sprague Dawley, rat, plasma, po, 1.77 mg/kg, Cmax of plasma oxymorphone, Mean, 1.77 mg/kg Oxymorphone HCl oral) (Cmax) was 1.23 ng/mL. The Tmax in series [2] (male, Sprague Dawley, rat, plasma, po, 1.77 mg/kg, Tmax of plasma oxymorphone, Mean, 1.77 mg/kg Oxymorphone HCl oral) was determined as 1.42 h.

Values taken from patent US10695342B2, “Methods and compositions for preventing opioid abuse” (Albany Molecular Research, Inc., priority 2015, dated 2020).
